Laboratory results from patent US9963442B2, “Pyridones as herbicides” (E I DU PONT DE NEMOURS AND COMPANY, priority 2014, dated 2018).

Key:
Type in all cases: in vivo
[1] = system: Italian ryegrass (Lolium multiflorum); experiment: Test A preemergence, directed soil spray; conditions: approx. 10 days
Outline: (§1)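 Visual injury scores on a 0–100 scale (100 = complete control), taken roughly 10 days after treatment in greenhouse relative to untreated plants. Seeded pots got a preemergence directed soil spray; postemergence sprays hit one- to two-leaf plants, 2–10 cm; formulation: solvent mixture with surfactant.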

[2] = system: barnyardgrass (Echinochloa crus-galli); experiment: Test A preemergence, directed soil spray; conditions: approx. 10 days
Outline: as §1

[3] = system: giant foxtail (Setaria faberii); experiment: Test A preemergence, directed soil spray; conditions: approx. 10 days
Outline: as §1

kochia (Kochia scoparia) = experiment: Test A preemergence, directed soil spray; conditions: approx. 10 days
Outline: as §1

[4] = system: pigweed (Amaranthus retroflexus); experiment: Test A preemergence, directed soil spray; conditions: approx. 10 days
Outline: as §1

[5] = system: ragweed (common ragweed, Ambrosia elatior); experiment: Test A preemergence, directed soil spray; conditions: approx. 10 days
Outline: as §1

[6] = system: barnyardgrass (Echinochloa crus-galli); experiment: Test C preemergence; conditions: scale 0 to 100, 0 is no effect, 100 is complete control
Outline: (§2)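 Plants are treated pre- or postemergence with test chemical in a solvent mixture plus surfactant and kept in a greenhouse for 13–15 days. Injury is then rated visually relative to untreated plants on a 0–100 scale.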

[7] = system: blackgrass (Alopecurus myosuroides); experiment: Test C preemergence; conditions: scale 0 to 100, 0 is no effect, 100 is complete control
Outline: as §2

corn (Zea mays) = experiment: Test C preemergence; conditions: scale 0 to 100, 0 is no effect, 100 is complete control
Outline: as §2

[8] = system: johnsongrass (Sorghum halepense); experiment: Test C preemergence; conditions: scale 0 to 100, 0 is no effect, 100 is complete control
Outline: as §2

[9] = system: lambsquarters (Chenopodium album); experiment: Test C preemergence; conditions: scale 0 to 100, 0 is no effect, 100 is complete control
Outline: as §2

[10] = system: morningglory (Ipomoea coccinea); experiment: Test C preemergence; conditions: scale 0 to 100, 0 is no effect, 100 is complete control
Outline: as §2

[11] = system: oilseed rape (Brassica napus); experiment: Test C preemergence; conditions: scale 0 to 100, 0 is no effect, 100 is complete control
Outline: as §2

[12] = system: pigweed (Amaranthus retroflexus); experiment: Test C preemergence; conditions: scale 0 to 100, 0 is no effect, 100 is complete control
Outline: as §2

[13] = system: ragweed (common ragweed, Ambrosia elatior); experiment: Test C preemergence; conditions: scale 0 to 100, 0 is no effect, 100 is complete control
Outline: as §2

soybean (Glycine max) = experiment: Test C preemergence; conditions: scale 0 to 100, 0 is no effect, 100 is complete control
Outline: as §2

[14] = system: waterhemp (common waterhemp, Amaranthus rudis); experiment: Test C preemergence; conditions: scale 0 to 100, 0 is no effect, 100 is complete control
Outline: as §2

[15] = system: winter wheat (Triticum aestivum); experiment: Test C preemergence; conditions: scale 0 to 100, 0 is no effect, 100 is complete control
Outline: as §2

[16] = system: yellow nutsedge (Cyperus esculentus); experiment: Test C preemergence; conditions: scale 0 to 100, 0 is no effect, 100 is complete control
Outline: as §2

[17] = system: giant foxtail (Setaria faberii); experiment: Test C postemergence; conditions: scale 0 to 100, 0 is no effect, 100 is complete control
Description: (§3) Seeds of plant species selected from blackgrass (Alopecurus myosuroides), Italian ryegrass (Lolium multiflorum), winter wheat (Triticum aestivum), galium (catchweed bedstraw, Galium aparine), corn (Zea mays), large (Lg) crabgrass (Digitaria sanguinalis), giant foxtail (Setaria faberii), johnsongrass (Sorghum halepense), lambsquarters (Chenopodium album), morningglory (Ipomoea coccinea), yellow nutsedge (Cyperus esculentus), pigweed (Amaranthus retroflexus), ragweed (common ragweed, Ambrosia elatior), soybean (Glycine max), barnyardgrass (Echinochloa crus-galli), oilseed rape (Brassica napus), waterhemp (common waterhemp, Amaranthus rudis), and velvetleaf (Abutilon theophrasti) were planted into a blend of loam soil and sand and treated preemergence with test chemicals formulated in a non-phytotoxic solvent mixture which included a surfactant. At the same time, plants selected from these crop and weed species and also chickweed (common chickweed, Stellaria media), kochia (Kochia scoparia), and wild oat (Avena fatua), were planted in pots containing Sunshine Redi-Earth® planting medium comprising spaghnum peat moss, vermiculite, starter nutrients and dolomitic limestone and treated with postemergence applications of test chemicals formulated in the same manner. Plants ranged in height from 2 to 18 cm (1- to 4-leaf stage) for postemergence treatments. Treated plants and controls were maintained in a greenhouse for 13 to 15 days, after which time all species were compared to controls and visually evaluated. Plant response ratings, summarized in Table C, are based on a scale of 0 to 100 where 0 is no effect and 100 is complete control. A dash (-) response means no test result.

[18] = system: yellow nutsedge (Cyperus esculentus); experiment: Test C postemergence; conditions: scale 0 to 100, 0 is no effect, 100 is complete control
Description: as §3

O=c1cccc(Oc2ncc(Cl)cn2)n1-c1ncc(Cl)cn1 [Compound 6]
Plant response rating (0 to 100 scale, 0 no effect, 100 complete control), Ryegrass, Italian ([1]; 31 g ai/ha): 0
Plant response rating (0 to 100 scale, 0 no effect, 100 complete control), Ryegrass, Italian ([1]; 125 g ai/ha): 10
Plant response rating (0 to 100 scale, 0 no effect, 100 complete control), Barnyardgrass ([2]; 31 g ai/ha): 20
Plant response rating (0 to 100 scale, 0 no effect, 100 complete control), Barnyardgrass ([2]; 125 g ai/ha): 70
Plant response rating (0 to 100 scale, 0 no effect, 100 complete control), Foxtail, Giant ([3]; 31 g ai/ha): 60
Plant response rating (0 to 100 scale, 0 no effect, 100 complete control), Foxtail, Giant ([3]; 125 g ai/ha): 100
Plant response rating (0 to 100 scale, 0 no effect, 100 complete control), Kochia (kochia (Kochia scoparia); 31 g ai/ha): 60
Plant response rating (0 to 100 scale, 0 no effect, 100 complete control), Kochia (kochia (Kochia scoparia); 125 g ai/ha): 100
Plant response rating (0 to 100 scale, 0 no effect, 100 complete control), Pigweed ([4]; 31 g ai/ha): 80
Plant response rating (0 to 100 scale, 0 no effect, 100 complete control), Pigweed ([4]; 125 g ai/ha): 100
Plant response rating (0 to 100 scale, 0 no effect, 100 complete control), Ragweed ([5]; 31 g ai/ha): 70
Plant response rating (0 to 100 scale, 0 no effect, 100 complete control), Ragweed ([5]; 125 g ai/ha): 80
Plant response rating, Barnyardgrass ([6]; 16 g ai/ha): 0
Plant response rating, Barnyardgrass ([6]; 31 g ai/ha): 5
Plant response rating, Barnyardgrass ([6]; 62 g ai/ha): 10
Plant response rating, Barnyardgrass ([6]; 125 g ai/ha): 40
Plant response rating, Blackgrass ([7]; 16 g ai/ha): 0
Plant response rating, Blackgrass ([7]; 31 g ai/ha): 0
Plant response rating, Blackgrass ([7]; 62 g ai/ha): 5
Plant response rating, Blackgrass ([7]; 125 g ai/ha): 5
Plant response rating, Corn (corn (Zea mays); 16 g ai/ha): 0
Plant response rating, Corn (corn (Zea mays); 31 g ai/ha): 5
Plant response rating, Corn (corn (Zea mays); 62 g ai/ha): 0
Plant response rating, Corn (corn (Zea mays); 125 g ai/ha): 5
Plant response rating, Johnsongrass ([8]; 16 g ai/ha): 0
Plant response rating, Johnsongrass ([8]; 31 g ai/ha): 0
Plant response rating, Johnsongrass ([8]; 62 g ai/ha): 5
Plant response rating, Johnsongrass ([8]; 125 g ai/ha): 10
Plant response rating, Lambsquarters ([9]; 16 g ai/ha): 40
Plant response rating, Lambsquarters ([9]; 31 g ai/ha): 30
Plant response rating, Lambsquarters ([9]; 62 g ai/ha): 65
Plant response rating, Lambsquarters ([9]; 125 g ai/ha): 85
Plant response rating, Morningglory ([10]; 16 g ai/ha): 5
Plant response rating, Morningglory ([10]; 31 g ai/ha): 5
Plant response rating, Morningglory ([10]; 62 g ai/ha): 20
Plant response rating, Morningglory ([10]; 125 g ai/ha): 55
Plant response rating, Oilseed Rape ([11]; 16 g ai/ha): 30
Plant response rating, Oilseed Rape ([11]; 31 g ai/ha): 90
Plant response rating, Oilseed Rape ([11]; 62 g ai/ha): 98
Plant response rating, Oilseed Rape ([11]; 125 g ai/ha): 98
Plant response rating, Pigweed ([12]; 16 g ai/ha): 55
Plant response rating, Pigweed ([12]; 31 g ai/ha): 75
Plant response rating, Pigweed ([12]; 62 g ai/ha): 90
Plant response rating, Pigweed ([12]; 125 g ai/ha): 100
Plant response rating, Ragweed ([13]; 16 g ai/ha): 25
Plant response rating, Ragweed ([13]; 31 g ai/ha): 25
Plant response rating, Ragweed ([13]; 62 g ai/ha): 70
Plant response rating, Ragweed ([13]; 125 g ai/ha): 85
Plant response rating, Soybean (soybean (Glycine max); 16 g ai/ha): 10
Plant response rating, Soybean (soybean (Glycine max); 31 g ai/ha): 20
Plant response rating, Soybean (soybean (Glycine max); 125 g ai/ha): 75
Plant response rating, Waterhemp ([14]; 16 g ai/ha): 75
Plant response rating, Waterhemp ([14]; 31 g ai/ha): 90
Plant response rating, Waterhemp ([14]; 62 g ai/ha): 100
Plant response rating, Waterhemp ([14]; 125 g ai/ha): 100
Plant response rating, Wheat ([15]; 16 g ai/ha): 0
Plant response rating, Wheat ([15]; 31 g ai/ha): 0
Plant response rating, Wheat ([15]; 62 g ai/ha): 5
Plant response rating, Wheat ([15]; 125 g ai/ha): 0
Plant response rating, Nutsedge, Yellow ([16]; 16 g ai/ha): 0
Plant response rating, Nutsedge, Yellow ([16]; 31 g ai/ha): 0
Plant response rating, Nutsedge, Yellow ([16]; 62 g ai/ha): 0
Plant response rating, Nutsedge, Yellow ([16]; 125 g ai/ha): 5
Plant response rating, Foxtail, Giant ([17]; 16 g ai/ha): 5
Plant response rating, Foxtail, Giant ([17]; 31 g ai/ha): 5
Plant response rating, Foxtail, Giant ([17]; 62 g ai/ha): 5
Plant response rating, Foxtail, Giant ([17]; 125 g ai/ha): 10
Plant response rating, Nutsedge, Yellow ([18]; 16 g ai/ha): 0
Plant response rating, Nutsedge, Yellow ([18]; 31 g ai/ha): 5
Plant response rating, Nutsedge, Yellow ([18]; 62 g ai/ha): 5
Plant response rating, Nutsedge, Yellow ([18]; 125 g ai/ha): 5
